9 compounds from ChEMBL document CHEMBL5465560, “Selectivity Literature for EUbOPEN Chemogenomic Library” (2024) can be followed below.

Bounds are passed on as bounds.

For one test, the target named is CDK9/cyclin T1 (Homo sapiens, UniProt P50750). In words: Selectivity interaction (Radiometric kinase assay ) EUB0000090b CDK9. It is filed as protein-complex assay.
Test [1] has as its target T1, Mitogen-activated protein kinase kinase kinase 19 (Homo sapiens) (UniProt Q56UN5).
T1 sequence (whole entry): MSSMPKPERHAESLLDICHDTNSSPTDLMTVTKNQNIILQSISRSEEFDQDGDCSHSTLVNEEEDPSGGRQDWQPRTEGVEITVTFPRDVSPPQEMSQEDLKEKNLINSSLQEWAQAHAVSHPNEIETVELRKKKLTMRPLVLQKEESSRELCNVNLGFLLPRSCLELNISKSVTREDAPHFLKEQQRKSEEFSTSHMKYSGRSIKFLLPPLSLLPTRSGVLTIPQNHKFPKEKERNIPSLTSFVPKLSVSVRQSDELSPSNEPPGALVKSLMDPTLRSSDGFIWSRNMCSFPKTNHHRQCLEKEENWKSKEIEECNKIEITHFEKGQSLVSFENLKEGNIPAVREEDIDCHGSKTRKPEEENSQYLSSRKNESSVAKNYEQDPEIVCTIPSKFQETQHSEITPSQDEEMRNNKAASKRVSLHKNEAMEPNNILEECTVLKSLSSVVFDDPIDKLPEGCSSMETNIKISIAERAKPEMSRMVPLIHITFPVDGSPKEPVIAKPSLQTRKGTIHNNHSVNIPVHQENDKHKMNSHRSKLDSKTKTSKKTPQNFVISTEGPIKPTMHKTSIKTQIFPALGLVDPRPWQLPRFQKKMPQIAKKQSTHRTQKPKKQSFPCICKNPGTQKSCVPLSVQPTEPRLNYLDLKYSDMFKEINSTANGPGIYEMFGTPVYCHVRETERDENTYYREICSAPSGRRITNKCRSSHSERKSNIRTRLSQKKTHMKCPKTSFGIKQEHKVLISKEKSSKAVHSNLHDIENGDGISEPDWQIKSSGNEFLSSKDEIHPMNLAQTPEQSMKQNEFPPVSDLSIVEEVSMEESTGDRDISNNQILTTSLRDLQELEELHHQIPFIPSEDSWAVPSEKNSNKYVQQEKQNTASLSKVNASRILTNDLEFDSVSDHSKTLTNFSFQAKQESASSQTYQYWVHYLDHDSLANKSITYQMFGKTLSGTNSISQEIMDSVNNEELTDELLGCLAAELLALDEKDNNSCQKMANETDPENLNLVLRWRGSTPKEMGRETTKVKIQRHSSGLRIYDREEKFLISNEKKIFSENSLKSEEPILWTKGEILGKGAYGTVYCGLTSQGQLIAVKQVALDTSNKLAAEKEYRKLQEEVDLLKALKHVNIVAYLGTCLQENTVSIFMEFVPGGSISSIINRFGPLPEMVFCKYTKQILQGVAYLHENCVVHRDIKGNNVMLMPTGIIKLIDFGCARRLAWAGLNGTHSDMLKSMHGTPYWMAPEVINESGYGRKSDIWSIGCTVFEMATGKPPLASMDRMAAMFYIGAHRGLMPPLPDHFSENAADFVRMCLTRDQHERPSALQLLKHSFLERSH
As to the kind of experiment: Selectivity interaction (KinomeScan (DiscoverX)) EUB0001049a MAP3K19. The following applies: at 1 µM.

For test [2], the target named is Serine/threonine-protein kinase VRK2 (Homo sapiens) (UniProt Q86Y07). As to the kind of experiment: Selectivity interaction (KinomeScan (DiscoverX)) EUB0001049a VRK2. Particulars: at 1 µM.
Sequence of Serine/threonine-protein kinase VRK2 (Homo sapiens) (Q86Y07 whole entry): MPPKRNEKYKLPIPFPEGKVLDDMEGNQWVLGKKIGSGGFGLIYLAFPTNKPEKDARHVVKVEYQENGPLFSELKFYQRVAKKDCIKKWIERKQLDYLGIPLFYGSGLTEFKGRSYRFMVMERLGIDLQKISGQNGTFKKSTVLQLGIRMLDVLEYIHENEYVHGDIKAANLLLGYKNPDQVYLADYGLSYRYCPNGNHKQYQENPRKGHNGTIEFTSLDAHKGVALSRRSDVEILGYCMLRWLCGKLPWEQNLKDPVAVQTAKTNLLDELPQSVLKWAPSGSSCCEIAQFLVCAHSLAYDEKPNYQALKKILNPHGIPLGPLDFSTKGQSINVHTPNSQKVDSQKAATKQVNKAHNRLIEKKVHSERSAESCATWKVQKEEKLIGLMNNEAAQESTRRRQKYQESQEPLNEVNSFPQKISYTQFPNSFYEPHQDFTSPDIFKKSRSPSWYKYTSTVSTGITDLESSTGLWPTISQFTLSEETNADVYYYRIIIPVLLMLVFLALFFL
Test [3] addresses Serine/threonine-protein kinase 16 (Homo sapiens, UniProt O75716). As to the kind of experiment: Selectivity interaction (KinomeScan (DiscoverX)) EUB0000695a STK16. Particulars: at 100 nM.
The target in test [4] is Calcium/calmodulin-dependent protein kinase type II subunit alpha (Homo sapiens, UniProt Q9UQM7). As to the kind of experiment: Selectivity interaction (KinomeScan (DiscoverX)) EUB0000666a CAMK2A. Particulars: at 10 µM.
Sequence of Calcium/calmodulin-dependent protein kinase type II subunit alpha (Q9UQM7 whole entry): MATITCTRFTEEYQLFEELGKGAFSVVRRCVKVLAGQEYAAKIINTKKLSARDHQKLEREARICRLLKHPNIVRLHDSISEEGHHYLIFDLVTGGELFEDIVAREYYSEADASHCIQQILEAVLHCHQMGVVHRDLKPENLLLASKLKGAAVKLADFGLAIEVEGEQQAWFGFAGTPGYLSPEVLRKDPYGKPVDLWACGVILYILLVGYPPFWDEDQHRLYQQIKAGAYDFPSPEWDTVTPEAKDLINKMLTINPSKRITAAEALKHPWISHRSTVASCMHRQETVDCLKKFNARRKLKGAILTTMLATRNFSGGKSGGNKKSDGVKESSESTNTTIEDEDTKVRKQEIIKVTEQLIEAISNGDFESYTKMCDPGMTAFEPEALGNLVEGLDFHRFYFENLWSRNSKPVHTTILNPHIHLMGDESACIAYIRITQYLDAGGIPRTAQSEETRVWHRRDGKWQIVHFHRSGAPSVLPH
Test [5] concerns the target Calcium/calmodulin-dependent protein kinase type 1G (Homo sapiens) (UniProt Q96NX5). In words: Selectivity interaction (Kinase panel (Z-LYTE Assay)) EUB0001632a CAMK1G. The following applies: at 10 µM.
In test [6] the target is T2, Protein arginine N-methyltransferase 7 (Homo sapiens) (UniProt Q9NVM4).
T2 sequence (whole entry): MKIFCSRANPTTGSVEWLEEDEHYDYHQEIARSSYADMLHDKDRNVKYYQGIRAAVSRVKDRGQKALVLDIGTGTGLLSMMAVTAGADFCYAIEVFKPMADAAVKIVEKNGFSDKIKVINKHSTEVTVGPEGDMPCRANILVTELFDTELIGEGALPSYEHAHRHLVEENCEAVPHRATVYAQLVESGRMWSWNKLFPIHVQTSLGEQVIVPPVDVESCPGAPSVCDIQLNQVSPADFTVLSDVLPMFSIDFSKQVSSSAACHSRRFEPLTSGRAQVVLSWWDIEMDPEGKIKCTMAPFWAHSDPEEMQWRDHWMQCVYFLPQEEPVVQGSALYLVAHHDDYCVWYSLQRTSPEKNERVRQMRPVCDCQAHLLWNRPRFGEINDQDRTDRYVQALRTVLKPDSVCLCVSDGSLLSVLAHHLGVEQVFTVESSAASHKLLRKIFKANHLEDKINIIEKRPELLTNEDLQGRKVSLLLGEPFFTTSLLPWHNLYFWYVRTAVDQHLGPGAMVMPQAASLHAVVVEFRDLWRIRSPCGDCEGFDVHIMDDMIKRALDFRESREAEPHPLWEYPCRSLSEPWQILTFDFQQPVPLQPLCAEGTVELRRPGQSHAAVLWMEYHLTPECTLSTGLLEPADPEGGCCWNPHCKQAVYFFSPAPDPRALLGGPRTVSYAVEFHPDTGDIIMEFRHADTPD
The following applies: at 1 µM.

A further test addresses SRSF protein kinase 1 (Homo sapiens, UniProt Q96SB4). In words: Selectivity interaction (SelectScreen profiling (Invitrogen)) EUB0000607a SRPK1. Particulars: at 2 µM.
In test [7] the target is Phosphatidylinositol 4,5-bisphosphate 3-kinase catalytic subunit alpha isoform (Homo sapiens) (UniProt P42336). The following applies: at 10 µM.
Sequence of Phosphatidylinositol 4,5-bisphosphate 3-kinase catalytic subunit alpha isoform (Homo sapiens) (P42336 whole entry, canonical isoform): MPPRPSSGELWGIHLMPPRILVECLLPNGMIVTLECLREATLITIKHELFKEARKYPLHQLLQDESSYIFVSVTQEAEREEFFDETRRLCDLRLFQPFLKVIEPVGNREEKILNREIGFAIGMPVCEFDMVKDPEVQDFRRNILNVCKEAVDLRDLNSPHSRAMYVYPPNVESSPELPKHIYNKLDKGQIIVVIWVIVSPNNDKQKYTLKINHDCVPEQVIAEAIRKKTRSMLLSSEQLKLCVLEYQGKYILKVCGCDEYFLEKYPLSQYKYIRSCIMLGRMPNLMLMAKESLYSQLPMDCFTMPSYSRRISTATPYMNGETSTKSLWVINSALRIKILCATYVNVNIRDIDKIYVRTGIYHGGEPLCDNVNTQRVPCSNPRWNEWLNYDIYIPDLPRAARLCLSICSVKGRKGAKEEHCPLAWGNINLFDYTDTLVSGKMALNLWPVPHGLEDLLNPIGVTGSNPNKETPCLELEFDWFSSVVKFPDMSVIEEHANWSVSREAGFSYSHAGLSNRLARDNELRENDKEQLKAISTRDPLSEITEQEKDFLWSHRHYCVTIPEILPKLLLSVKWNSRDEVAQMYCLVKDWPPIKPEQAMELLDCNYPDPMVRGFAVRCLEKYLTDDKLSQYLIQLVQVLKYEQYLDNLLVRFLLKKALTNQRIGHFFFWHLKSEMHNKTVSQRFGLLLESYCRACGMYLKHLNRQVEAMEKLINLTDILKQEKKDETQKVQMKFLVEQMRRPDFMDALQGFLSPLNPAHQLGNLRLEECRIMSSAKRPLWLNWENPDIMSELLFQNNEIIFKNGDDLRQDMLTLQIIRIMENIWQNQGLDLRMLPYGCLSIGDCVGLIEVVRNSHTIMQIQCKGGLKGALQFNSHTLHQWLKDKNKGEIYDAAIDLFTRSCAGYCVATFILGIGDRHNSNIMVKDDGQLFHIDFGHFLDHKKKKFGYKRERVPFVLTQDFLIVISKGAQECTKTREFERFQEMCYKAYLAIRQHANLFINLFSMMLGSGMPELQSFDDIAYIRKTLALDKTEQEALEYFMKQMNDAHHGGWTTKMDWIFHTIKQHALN
Test [8] has as its target Mitogen-activated protein kinase kinase kinase 4 (Homo sapiens) (UniProt Q9Y6R4). As to the kind of experiment: Selectivity interaction (KinomeScan (DiscoverX)) EUB0000618a MAP3K4. Particulars: at 10 µM.

Sequence of SRSF protein kinase 1 (Q96SB4 whole entry, canonical isoform): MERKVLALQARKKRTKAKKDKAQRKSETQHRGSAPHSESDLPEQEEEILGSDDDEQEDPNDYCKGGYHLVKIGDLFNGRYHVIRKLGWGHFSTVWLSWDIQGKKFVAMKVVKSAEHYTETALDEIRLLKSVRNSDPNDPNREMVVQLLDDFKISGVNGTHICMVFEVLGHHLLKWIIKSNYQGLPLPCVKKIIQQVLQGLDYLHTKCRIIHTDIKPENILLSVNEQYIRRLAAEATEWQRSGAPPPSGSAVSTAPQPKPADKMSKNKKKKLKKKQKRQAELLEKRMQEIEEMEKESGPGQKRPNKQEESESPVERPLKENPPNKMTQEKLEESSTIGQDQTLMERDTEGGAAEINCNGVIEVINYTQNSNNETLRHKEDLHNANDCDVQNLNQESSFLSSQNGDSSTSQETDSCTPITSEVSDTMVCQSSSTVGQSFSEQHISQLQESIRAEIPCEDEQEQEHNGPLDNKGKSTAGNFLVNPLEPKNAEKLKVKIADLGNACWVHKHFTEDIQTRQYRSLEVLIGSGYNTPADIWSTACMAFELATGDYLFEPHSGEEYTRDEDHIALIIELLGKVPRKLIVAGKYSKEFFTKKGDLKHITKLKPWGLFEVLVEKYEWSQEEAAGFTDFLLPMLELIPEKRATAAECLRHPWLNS
Sequence of Calcium/calmodulin-dependent protein kinase type 1G (Homo sapiens) (Q96NX5 whole entry): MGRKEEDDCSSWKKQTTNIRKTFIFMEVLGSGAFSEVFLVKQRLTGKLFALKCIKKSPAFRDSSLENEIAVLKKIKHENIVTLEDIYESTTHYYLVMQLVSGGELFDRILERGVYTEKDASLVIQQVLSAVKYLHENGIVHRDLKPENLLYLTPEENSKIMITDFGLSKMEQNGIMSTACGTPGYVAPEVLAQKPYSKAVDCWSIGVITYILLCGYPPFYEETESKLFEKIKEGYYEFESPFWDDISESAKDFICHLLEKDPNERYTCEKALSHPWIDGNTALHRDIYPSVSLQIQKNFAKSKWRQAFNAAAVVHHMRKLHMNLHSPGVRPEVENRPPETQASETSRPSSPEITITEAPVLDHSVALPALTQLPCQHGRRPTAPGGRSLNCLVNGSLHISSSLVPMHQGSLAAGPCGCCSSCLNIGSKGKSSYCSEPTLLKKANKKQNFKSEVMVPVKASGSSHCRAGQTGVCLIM
Sequence of CDK9/cyclin T1 (O60563 whole entry): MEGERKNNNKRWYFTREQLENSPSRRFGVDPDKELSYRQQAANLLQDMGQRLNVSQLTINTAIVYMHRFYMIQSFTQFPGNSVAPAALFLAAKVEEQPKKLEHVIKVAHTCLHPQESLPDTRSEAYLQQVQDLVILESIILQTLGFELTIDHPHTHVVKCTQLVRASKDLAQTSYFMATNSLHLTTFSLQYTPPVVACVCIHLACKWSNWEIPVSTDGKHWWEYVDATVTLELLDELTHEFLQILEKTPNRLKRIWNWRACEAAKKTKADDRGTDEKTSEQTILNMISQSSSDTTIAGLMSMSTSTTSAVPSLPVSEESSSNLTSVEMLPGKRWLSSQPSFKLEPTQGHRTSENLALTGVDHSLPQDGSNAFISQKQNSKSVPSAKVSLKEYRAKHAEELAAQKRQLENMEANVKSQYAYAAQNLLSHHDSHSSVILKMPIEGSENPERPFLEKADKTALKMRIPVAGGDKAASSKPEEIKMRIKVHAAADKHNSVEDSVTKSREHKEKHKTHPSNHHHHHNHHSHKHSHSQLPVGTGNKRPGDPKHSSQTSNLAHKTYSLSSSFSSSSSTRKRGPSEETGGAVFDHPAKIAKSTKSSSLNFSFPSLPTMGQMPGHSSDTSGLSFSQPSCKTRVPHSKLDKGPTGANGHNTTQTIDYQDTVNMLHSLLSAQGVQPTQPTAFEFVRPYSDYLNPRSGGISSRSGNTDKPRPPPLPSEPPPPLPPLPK
Sequence of CDK9/cyclin T1 (P50750 whole entry): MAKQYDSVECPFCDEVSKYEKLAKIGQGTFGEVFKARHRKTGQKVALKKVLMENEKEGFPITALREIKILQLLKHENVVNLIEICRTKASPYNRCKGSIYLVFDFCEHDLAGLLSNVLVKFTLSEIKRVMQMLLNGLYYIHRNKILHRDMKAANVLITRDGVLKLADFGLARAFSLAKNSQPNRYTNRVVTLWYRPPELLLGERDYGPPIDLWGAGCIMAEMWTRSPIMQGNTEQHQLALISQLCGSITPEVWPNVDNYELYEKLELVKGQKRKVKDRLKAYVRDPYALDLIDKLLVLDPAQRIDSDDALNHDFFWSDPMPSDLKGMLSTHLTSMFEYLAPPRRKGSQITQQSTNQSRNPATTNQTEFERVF
Sequence of Serine/threonine-protein kinase 16 (O75716 whole entry): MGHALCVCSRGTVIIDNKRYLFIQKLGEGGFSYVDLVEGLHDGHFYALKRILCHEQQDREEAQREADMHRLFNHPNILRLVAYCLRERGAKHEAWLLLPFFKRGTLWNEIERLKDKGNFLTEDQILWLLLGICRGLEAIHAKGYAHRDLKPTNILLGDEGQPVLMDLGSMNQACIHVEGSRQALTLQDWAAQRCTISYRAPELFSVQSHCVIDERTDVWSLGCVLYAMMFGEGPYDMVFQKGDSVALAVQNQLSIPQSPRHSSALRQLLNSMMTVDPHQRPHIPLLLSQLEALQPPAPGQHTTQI

Take `CN(C)C/C=C/C(=O)Nc1ccc(C(=O)N2CCCC(Nc3ncc(Cl)c(-c4c[nH]c5ccccc45)n3)C2)cc1` (stereo not given): the IC50 on CDK9/cyclin T1 is 10.5 µM.
As for `COc1cc(Nc2nc(C)cc(-c3cnn4nc(OC)ccc34)n2)cc(C(F)(F)F)c1`, the % of control amounted to 75% in test [1] and 100% in test [2].
`Cc1cc(F)c(C(=O)Nc2cccc(-c3nncn3C(C)C)n2)cc1-n1cnc(C2CC2)c1`: the % of control in test [3] came to 83%.
Consider `O=C(NOC[C@H](O)CO)c1ccc(F)c(F)c1Nc1ccc(I)cc1F`, for which the % of control in [4] was determined as 100%.
For `Cn1cc(-n2cnc3c(NCc4nc5cc(Cl)c(Cl)cc5[nH]4)nc(N4CCOCC4)nc32)cn1`, the % of control in test [5] was -0.991%.
For the compound `CNCCN1CCC(c2cc(CN(C)C(=O)c3cccc(Oc4ccccc4)c3)ccn2)CC1`, in test [6], the % activity was > 90%.
For the compound `CNC(=O)Nc1ccc(-c2nc(N3CC4CCC(C3)O4)c3cnn(C4CCC5(CC4)OCCO5)c3n2)cc1`, the % of inhibition on SRSF protein kinase 1 stood at 2%.
Regarding `COCC(=O)NC/C=C/c1ccc2ncnc(Nc3ccc(Oc4ccc(C)nc4)c(C)c3)c2c1` [CP-724714], the % of control in test [7] turned out to be 100%.
Take `O[C@H]1CC[C@H](Nc2ncc3nc(Nc4c(F)cc(F)cc4F)n([C@H]4CCOC4)c3n2)CC1`: the % of control in [8] was 100%.
